The source of these data is US20260373186A1 (Mireca Medicines GmbH, priority 2022, published 2026).

Data set [1] is described as follows: Drug loading of Compound 188-loaded microparticles (HPLC). It is filed as physicochemical. The following applies: 99% PLGA75125 4A and 1% PLGA5050-PEG5K.
Data set [2] is described as follows: In vitro drug release from Compound 188-loaded microparticles. It is filed as physicochemical. As to conditions: 99% PLGA75125 4A and 1% PLGA5050-PEG5K, PBS with 1% Tween 20, 37 °C.
Data set [3] in a line: Drug loading of Compound 221-loaded implants (HPLC). It is filed as physicochemical. The following applies: implants (hot melt extrusion), 99% PLGA75125 4A and 1% PLGA5050-PEG5K. The protocol: (§1) Compound 221 and biodegradable polymer excipients including PLGA and PLGA-PEG were weighed and thoroughly premixed in a sealed container. The powder blend was fed into an extruder (HAAKE Twin Screw Compounder, Thermo Fisher Scientific), which was pre-set to a temperature of 80-90 °C and a screw speed of 150 rpm. The blend was heated in the extruder and recirculated in the extruder chamber through an internal loop channel for a pre-set duration (e.g., 2-30 min). The filament was extruded at pre-set screw speed (e.g, 10-300 rpm) through a die, guided by a conveying belt and cut into desired length (3-10 mm) for further testing.
(§2) The drug loading of the implants was quantitated by HPLC.

A short description of data set [4]: In vitro drug release from Compound 221-loaded implants. It is filed as physicochemical. As to conditions: implants (hot melt extrusion), 99% PLGA75125 4A and 1% PLGA5050-PEG5K; PBS with 1% Tween 20, 37 °C. The protocol:
as §1, §2

Data set [5] in a line: Drug loading of Compound 221-loaded microparticles (HPLC). As to conditions: 99% PLGA75125 4A and 1% PLGA5050-PEG5K.
Data set [6] can be described thus: In vitro drug release from Compound 221-loaded microparticles. The following applies: 99% PLGA75125 4A and 1% PLGA5050-PEG5K, PBS with 1% Tween 20, 37 °C.
For data set [7], the system named is photoreceptors of rd1 explants. The data set is described as follows: Photoreceptor cell death in rd1 retinal explants (TUNEL). The following applies: Mus musculus. It is filed as cell-based. An excerpt: Legend: The animals at the age of postnatal day 5 (PN5) were killed by decapitation and retinas were dissected out with retinal pigment epithelium attached as described previously (Caffe, A. R.; Ahuja, P.; Holmqvist, B.; Azadi, S.; Forsell, J.; Holmqvist, I.; Soderpalm, A. K.; van Veen, T., Mouse retina explants after long-term culture in serum free medium. J Chem Neuroanat 2001, 22 (4), 263-73). The retinas were flattened out on the membranes of commercially available 6-well culture inserts, after which 1.5 ml of a custom made culturing medium was added to each well. These explants were then kept in culture for two days without any treatment after which the test analog of the invention at the desired concentration was added at a medium change at PN7 (“7” in Figure). […]
Legend: Effects of selected analogs at given concentrations of the invention on the cell death of photoreceptors of rd1 explants. The cell death was assessed by so called TUNEL stain on fixated and sectioned material, after which the number of dying cells was counted and analyzed, and compared with that from untreated rd1 explants. In order to allow more direct comparisons between the different analogs and concentrations a ratio of treated/untreated specimens was calculated. […]

Data set [8] deals with cGMP dependent protein kinase. As to conditions: cited from earlier work.
Data set [9] deals with rd1 and rd2 photoreceptors. The following applies: in vitro; cited from earlier work.
The subject of data set [10] is rd1 and rd2 photoreceptors. As to conditions: in vivo mouse retinitis pigmentosa models; cited from earlier work.

Counter-ions that a name gives are not always drawn. Like-named read-outs stand apart in the source and are kept apart here.

Regarding `Cc1ccc(-c2cn3c(=O)c4nc(Br)n([C@@H]5O[C@@H]6CO[P@@](=O)(S)O[C@H]6[C@H]5O)c4nc3[nH]2)cc1` [Compound 188-BEN, 8-bromo-(4-methyl-β-phenyl-1,N^2-etheno)guanosine-3′,5′-cyclic monophosphorothioate, Rp-isomer, N-benzyl-2-phenylethan-1-aminium salt], in data set [1] (target drug loading 30%), the “Compound 188 loading (w/w)” value turned out to be 26%. Moreover, the Release duration in [2] (target drug loading 30%) is given as 29 days.

For `Cc1ccc(-c2cn3c(=O)c4nc(Br)n([C@@H]5O[C@@H]6CO[P@@](=O)(S)O[C@H]6[C@H]5O)c4nc3[nH]2)cc1` [Compound 188-BEZ, 8-bromo-(4-methyl-β-phenyl-1,N^2-etheno)guanosine-3′,5′-cyclic monophosphorothioate, Rp-isomer, N-benzyl-2-(benzylamino)ethan-1-aminium salt], the “Compound 188 loading (w/w)” value in data set [1] (target drug loading 20%) is recorded as 19.6%. Also, the “Release duration: % released in 49 days” value in data set [2] (target drug loading 20%, in 49 days) is 32% released.

Consider `Cc1ccc(-c2cn3c(=O)c4nc(Br)n([C@@H]5O[C@@H]6CO[P@@](=O)(S)O[C@H]6[C@H]5O)c4nc3[nH]2)cc1` [Compound 188-Ca], for which, in data set [1] (target drug loading 30%), the “Compound 188 loading (w/w)” value is listed as 3%.

Turning to `O=c1c2nc(Br)n([C@@H]3O[C@@H]4CO[P@@](=O)(S)O[C@H]4[C@H]3O)c2nc2[nH]c(-c3ccccc3)cn12` [Compound 221-BEN, 8-bromo-(β-phenyl-1,N^2-etheno)guanosine-3′,5′-cyclic monophosphorothioate, Rp-isomer, N-benzyl-2-phenylethan-1-aminium salt], the “Compound 221 loading (w/w)” value amounted to 30.0% in data set [3] and 22.5% in data set [5] (target drug loading 30%). The Release duration turned out to be 40 days in data set [4] and 43 days in data set [6] (target drug loading 30%).

Take `O=c1c2nc(Br)n([C@@H]3O[C@@H]4CO[P@@](=O)(S)O[C@H]4[C@H]3O)c2nc2[nH]c(-c3ccccc3)cn12` [Compound 221-BEZ, 8-bromo-(β-phenyl-1,N^2-etheno)guanosine-3′,5′-cyclic monophosphorothioate, Rp-isomer which is N-benzyl-2-(benzylamino)ethan-1-aminium salt]: the “Compound 221 loading (w/w)” value in [3] is listed as 30.0%; in data set [5] (target drug loading 30%) it was 14.0%. For the same compound, the Release duration in [4] is recorded as 40 days; in data set [6] (target drug loading 30%), 35 days.

`O=c1c2nc(Br)n([C@@H]3O[C@@H]4CO[P@@](=O)(S)O[C@H]4[C@H]3O)c2nc2[nH]c(-c3ccccc3)cn12` [Compound 221-Ca]: in data set [3], the “Compound 221 loading (w/w)” value was found to be 30.0%. In data set [4], this compound returned a Release duration of 40 days.

As for `O=c1c2nc(Br)n([C@@H]3O[C@@H]4CO[P@@](=O)(S)O[C@H]4[C@H]3O)c2nc2[nH]c(-c3ccccc3)cn12` [Compound 221-FA], the “Compound 221 loading (w/w)” value in data set [3] is 10.5%; in [5] (target drug loading 10%), 1.2%. Also, the figures for the Release duration in data set [4] and in data set [6] (target drug loading 10%) were 26 days and 22 days, respectively.

Turning to `O=c1c2nc(Br)n([C@@H]3O[C@@H]4CO[P@@](=O)(S)O[C@H]4[C@H]3O)c2nc2[nH]c(-c3ccccc3)cn12` [Compound 221-Na], in [3], the “Compound 221 loading (w/w)” value is given as 17.4%. This compound also returned a Release duration in data set [4] of 14 days.

`O=c1c2nc(Br)n([C@@H]3O[C@@H]4CO[P@@](=O)(S)O[C@H]4[C@H]3O)c2nc2[nH]c(-c3ccccc3)cn12` [Compound 221-TEA]: the “Compound 221 loading (w/w)” value in data set [3] is reported as 15.75%; in [5] (target drug loading 10%) it was 1.8%. Further, the Release duration in data set [4] is reported as 40 days; in [6] (target drug loading 10%), 35 days.

On to `O=c1c2nc(Br)n([C@@H]3O[C@@H]4CO[P@@](O)(=S)O[C@H]4[C@H]3O)c2nc2[nH]c(-c3ccccc3)cn12` [Rp-8-Br-PET-cGMPS], for which the photoreceptor cell death, % of untreated at 50 µM in data set [7] (TUNEL, untreated = 1.0, n = 8, read-out: effect ratio of treated/untreated specimens (photoreceptor cell death)) is around 78%. Moreover, the inhibition at 50 µM in data set [7] (vs untreated, read-out: reduction of photoreceptor cell death) is above 20%. Further, in data set [8], the “efficacy / agonistic properties” value is recorded as “suboptimal efficacies or even partially agonistic properties”.

For `Nc1nc2c(nc(Br)n2[C@@H]2O[C@@H]3COP(O)(=S)O[C@H]3[C@H]2O)c(=O)[nH]1` (stereo partly drawn) [Rp-8-Br-cGMPS], the “protection for rd1 and rd2 photoreceptors” value in data set [9] and in data set [10] was “some protection” throughout.
